Our source for the hSTING inhibitory activity, IFN-β bioinhibitory activity and IC50 values is patent publication US20240279205A1, “NOVEL BENZIMIDAZOLE DERIVATIVE” (Carna Biosciences, Inc., priority 2020, published 2024).

The target in one test is T1, human STING (hSTING) (Homo sapiens, UniProt Q86WV6).
T1 construct: host or cells: HEK-Blue ISG cells (HEK293-derived SEAP reporter line)
Kind of test: Inhibition test of intracellular human STING (hSTING) pathway using SEAP reporter cells (HEK-Blue ISG), stimulation with Compound 3. To be noted: Compound 3 10 nM stimulation, 21 hours. More on the design: hSTING inhibitory activity: scale not given here. Type of test: cell-based. The method, boiled down: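 HEK-Blue ISG cells with IRF-inducible SEAP reporter, pretreated 1 h with compound (final 0.1 to 10 μM), then stimulated with Compound 3 (final 10 nM) for 21 h at 37° C. Supernatant SEAP measured colorimetrically; IC50 from log-concentration regression, normalized to stimulated (100%) and unstimulated (0%) controls.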

The subject of test [1] is STING activation (IFN-β production in THP-1 cells). Briefly: Human IFN-β production inhibition test by cGAMP stimulation in THP-1 cells. Type of test: cell-based. More on the design: IFN-β bioinhibitory activity: scale not given here. To be noted: 2'3'-cGAMP transfection, 18 hours, IFN-β ELISA; for IC50: Homo sapiens, read-out: IFN-β bioinhibitory activity. The method, boiled down:
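PMA-primed (100 nM, overnight) THP-1 cells pretreated 1 h with compound at 0.001 to 1 μM (0.1% DMSO), then transfected with 0.12 μg/well 2′3′-cGAMP and cultured 18 hours. Supernatant IFN-β measured by ELISA; IC50 by regression against log concentration, normalised to cGAMP-only (100%) and unstimulated (0%) controls.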
(In general: In an ELISA, binding on a coated surface is turned into a signal by an enzyme label.)

T1 sequence (Q86WV6 whole entry H232R): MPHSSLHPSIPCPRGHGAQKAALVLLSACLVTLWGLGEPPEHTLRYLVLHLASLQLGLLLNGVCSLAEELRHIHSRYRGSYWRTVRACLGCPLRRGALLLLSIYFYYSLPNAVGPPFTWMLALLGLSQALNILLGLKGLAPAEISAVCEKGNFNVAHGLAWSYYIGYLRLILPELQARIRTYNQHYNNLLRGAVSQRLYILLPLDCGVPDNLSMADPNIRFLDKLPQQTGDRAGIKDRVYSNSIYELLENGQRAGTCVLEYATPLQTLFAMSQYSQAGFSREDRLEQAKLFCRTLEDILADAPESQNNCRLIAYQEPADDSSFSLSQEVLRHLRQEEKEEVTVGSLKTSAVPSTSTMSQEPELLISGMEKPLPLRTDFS

Take `FC(F)(F)c1ccc2[nH]c(Nc3c[nH]c4ccc(Br)nc34)nc2c1` [Example 31, N-(5-bromo-1H-pyrrolo[3,2-b]pyridin-3-yl)-5-(trifluoromethyl)-1H-benzo[d]imidazol-2-amine]: the hSTING inhibitory activity entry at human STING (hSTING) is listed as “* *”. The IFN-β bioinhibitory activity entry in test [1] is reported as “* * *”.

For `Cc1ccnc2c(Nc3nc4cc(Oc5ccccc5)ccc4[nH]3)c[nH]c12` [Embodiment 52, N-(7-methyl-1H-pyrrolo[3,2-b]pyridin-3-yl)-5-phenoxy-1H-benzo[d]imidazol-2-amine], at human STING (hSTING), the hSTING inhibitory activity result is recorded as “* *”. Further, the IC50 in test [1] lay in the range of 100 to 1000 nM.

`Clc1ccc2[nH]cc(Nc3nc4cc(Oc5ccccc5)ccc4[nH]3)c2n1` [Embodiment 35, N-(5-chloro-1H-pyrrolo[3,2-b]pyridin-3-yl)-5-phenoxy-1H-benzo[d]imidazol-2-amine]: the hSTING inhibitory activity result on human STING (hSTING) is recorded as “* * *”. Further, the IC50 in test [1] is 100 to 1000 nM.

Turning to `C=C(C)c1ccc2[nH]c(Nc3c[nH]c4ccc(Cl)nc34)nc2c1` [Embodiment 100, N-(5-chloro-1H-pyrrolo[3,2-b]pyridin-3-yl)-5-(prop-1-en-2-yl)-1H-benzo[d]imidazole-2-amine], the hSTING inhibitory activity entry on human STING (hSTING) is “* * *”. For the same compound, the IFN-β bioinhibitory activity entry in test [1] was “* * *”.

Regarding `C=Cc1ccc2[nH]cc(Nc3nc4ccc(Oc5ccc(F)cc5)cc4n3C)c2n1` [Embodiment 191], the hSTING inhibitory activity result at human STING (hSTING) is “* *”. Moreover, the IC50 in test [1] was 100 to 1000 nM.

For the compound `C=Cc1ccc2[nH]cc(Nc3nc4ccc(Oc5ccc(F)cc5)cc4n3C3CC3)c2n1` [Embodiment 188, 1-Cyclopropyl-6-(4-fluorophenoxy)-N-(5-vinyl-1H-pyrrolo[3,2-b]pyridin-3-yl)-1H-benzo[d]imidazole-2-amine], the hSTING inhibitory activity entry at human STING (hSTING) is reported as “* *”. Also, in test [1], the IC50 was in the range of 100 to 1000 nM.

On to `Nn1c(Nc2c[nH]c3ccc(Cl)cc23)nc2cc(C(F)(F)F)cc(F)c21` [Embodiment 269, N2-(5-Chloro-1H-indol-3-yl)-7-fluoro-5-(trifluoromethyl)-1H-benzo[d]imidazole-1,2-diamine], for which the hSTING inhibitory activity entry at human STING (hSTING) is recorded as “* * *”. The IFN-β bioinhibitory activity entry in test [1] is “* *”.

Turning to `N#Cc1ccc2[nH]c(Nc3c[nH]c4ccc(Br)cc34)nc2c1` [Example 19, 2-[(5-bromo-1H-indol-3-yl)amino]-1H-benzo[d]imidazole-5-carbonitrile], the hSTING inhibitory activity result at human STING (hSTING) is “* *”. In addition, the IC50 in test [1] was in the range of 100 to 1000 nM.

Regarding `CCn1c(Nc2c[nH]c3ccc(Cl)cc23)nc2cc(C(F)(F)F)cc(F)c21` [Embodiment 240], the hSTING inhibitory activity entry on human STING (hSTING) is “* * *”. In test [1], the IFN-β bioinhibitory activity result was “* *”.

On to `FC(F)(F)c1cccc2[nH]c(Nc3c[nH]c4ccc(Br)nc34)nc12` [Embodiment 89, N-(5-bromo-1H-pyrrolo[3,2-b]pyridin-3-yl)-4-(trifluoromethyl)-1H-benzo[d]imidazol-2-amine], for which the hSTING inhibitory activity entry at human STING (hSTING) was “* * *”. In addition, the IC50 in test [1] was in the range of 100 to 1000 nM.

Regarding `Clc1ccc2[nH]cc(Nc3nc4c(C5=CCOCC5)cccc4[nH]3)c2n1` [Embodiment 149, N-(5-chloro-1H-pyrrolo[3,2-b]pyridin-3-yl)-4-(3,6-dihydro-2H-pyran-4-yl)-1H-benzo[d]imidazol-2-amine], the IC50 at human STING (hSTING) (read-out: hSTING inhibitory activity) lay in the range of 1000 to 10000 nM; in test [1] it was 100 to 1000 nM.

`Cn1c(Nc2c[nH]c3ccc(Cl)nc23)nc2ccc(Oc3ccc(F)cc3)cc21` [Embodiment 58, N-(5-chloro-1H-pyrrolo[3,2-b]pyridin-3-yl)-6-(4-fluorophenoxy)-1-methyl-1H-benzo[d]imidazol-2-amine]: on human STING (hSTING), the hSTING inhibitory activity result is reported as “* *”. Besides, the IC50 in test [1] lay within 100 to 1000 nM.

In the case of `Cn1c(Nc2c[nH]c3ncc(Cl)cc23)nc2ccc(Oc3ccccc3)cc21` [Embodiment 108, N-(5-Chloro-1H-pyrrolo[2,3-b]pyridin-3-yl)-1-methyl-6-phenoxy-1H-benzo[d]imidazol-2-amine], the hSTING inhibitory activity entry on human STING (hSTING) is “* *”. In test [1], the IC50 is not below 1000 nM.
